{"source": "patent US11806351B2", "about": "“Use of coenzyme factor for activation of ATP production in cell” (TERA STONE Co., Ltd, priority 2018, dated 2023)", "key": {"[1]": {"tested_on": "astrocytes, one of glial cells of the central nerve system", "test": "fluorescence measurement of ATP amount in cultured astrocytes", "format": "cell-based", "conditions": "1 μM", "protocol": "Specimen 1 was added to astrocytes, one of glial cells of the central nerve system, after culturing and the fluorescence measurement results are shown in FIG. 2A and FIG. 2B."}, "hippocampal neurons [2]": {"tested_on": "hippocampal neurons", "test": "mature cultured hippocampal neurons: dendrite branches", "format": "cell-based, ICR mouse", "protocol": "As in Example 4, hippocampal neurons were collected from a juvenile (0 day after birth) ICR mouse brain and the neurons were cultured on a culture dish.\nSpecimen 1 was administered once to the mature cultured hippocampal cells (on culture day 11) and three days later (on culture day 14), the neuron axons and dendrites of the hippocampal neurons (neurons) were observed.\nConcentric circles were drawn at an interval of 10 μm with a soma as a center and the number of dendrites crossing the circles was measured."}, "hippocampal neurons [3]": {"tested_on": "hippocampal neurons", "test": "cultured hippocampal neurons, initial stage of growth: axons, dendrites, excitatory synapses", "format": "cell-based, ICR mouse", "protocol": "Hippocampal neurons were collected from a juvenile (0 day after birth) ICR mouse brain and neurons were cultured on a culture dish.\nSpecimen 1 was added once to the cells in the initial stage of growth (on culture day 1) and after three days (on culture day 4), the number of neuron axons, dendrites, and growing synapses of the hippocampal neurons (neurons) was quantified. Specimen 1 (0.1 μM, 0.3 μM, 1.0 μM) was added once on culture day 1. Axon and Dendrite were immunostained with a tau antibody and a MAP2 antibody, respectively, three days after the addition (on culture day 4) and morphology thereof was observed.\nAn experiment was performed by drawing concentric circles (not shown) at an interval of 10 μm with a soma as a center and the number of axons crossing the circles was measured.\nThe dendrite was immunostained with a MAP2 antibody on culture day 4 and the number of branches of the dendrite was quantified. An experiment was performed by drawing concentric circles (not shown) at an interval of 10 μm with a soma as a center and the number of dendrites crossing the circles was counted.\nThen, excitatory synapses on culture 14 day were immunostained with a VGLUT1 antibody and the number of synapses was quantified."}, "[4]": {"test": "lipophilicity, hydrophobicity and stability", "format": "physicochemical"}, "[5]": {"tested_on": "cytoplasmic calcium concentration", "test": "cytoplasmic calcium concentration in brain slice preparations exposed to 80K ACSF, 24 h after subcutaneous administration", "format": "in vivo, mouse (C57B/6NL)", "protocol": "(§1) Formation of brain slice preparation and measurement of calcium concentration: Used was a whole brain half-cut preparation obtained by cutting a whole brain slice (300 μm) of a mouse (C57B/6NL), pretreated with Specimen 1 for 24 hours by subcutaneous administration, at a median line. […] The resulting preparation was placed in a chamber provided on a stage of an inverted fluorescence microscope (Olympus IX71), covered with a piece of black cotton, fixed with a platinum ring, and refluxed (70 ml/hr) in ACSF aerated with 95% O2 and 5% CO2. A fluorescent image of the preparation was acquired using a 4× objective lens and respective images of the hippocampal ventral part and cerebral cortex temporal region were obtained in one screen. For the measurement of a mitochondrial calcium concentration, a change in intensity of red fluorescence (>600 nm) caused by excitation light at 580 nm was determined and for the measurement of a cytoplasmic calcium concentration, a ratio of fluorescence (>500 nm) between excitation at 360 nm and that at 380 nm was determined. A hippocampal CA1 site and a cerebral cortex were used as two regions of interest (ROI).\n(§2) In water was dissolved β-NMN to give a 10 mg/kg, 30 mg/kg, or 100 mg/kg solution; Specimen 1 was dissolved in an alcohol to give a solution of 1 mg/ml and then the resulting solution was diluted with water to give a 0.01 mg/kg, 0.1 mg/kg or 1.0 mg/kg solution; and they were subcutaneously administered to mice 24 hours before the formation of the preparation (0.1 ml/10 g).\n(§3) In the present test, an operation of exposing the brain preparations formed from mice administered with two drugs having respective concentrations to isotonic 80 mM KCl-ACSF (artificial cerebrospinal fluid) for 5 minutes and then returning them in normal ACSF for 5 minutes was performed three successive times to give a severe calcium load to the preparations. Variations in cytoplasmic and mitochondrial calcium concentrations at that time were measured."}, "SIRT1": {"tested_on": "SIRT1", "test": "SIRT1 in treated nematode (preliminary experiment)", "format": "in vivo", "conditions": "nematode treated for 24 hours"}, "[6]": {"tested_on": "human glioma U251 cells (Sig1-R transfected cells)", "test": "intracellular ATP concentration in human glioma U251 cells", "format": "cell-based", "conditions": "fluorescence measurement 6 hours after administration", "protocol": "To cultured human glioma US251 cells (Sig1-R transfected cells) were added Specimens 1 and 2, respectively and intercomparison was performed between intracellular ATP concentration after addition and that without addition (Cont.). […] It is to be noted that fluorescence measurement was performed 6 hours after the administration of the specimens."}, "[7]": {"tested_on": "mitochondrial calcium concentration", "test": "mitochondrial calcium concentration in brain slice preparations exposed to 80K ACSF, 24 h after subcutaneous administration", "format": "in vivo, mouse (C57B/6NL)", "protocol": "as §1, §2, §3\nFIG. 31A to FIG. 32C show the quantification results of the effects of β-NMN and Specimen 1 (TND1128) at each concentration. In FIG. 31A to FIG. 32C, FIG. 31A and FIG. 32A show the results of calculating a mitochondrial calcium concentration, as AUC (Area under the curve), for 35 minutes from 5 minutes after starting of the experiment by administration to three times exposure to 80K-ACSF and 5-minute washing (refer to FIG. 37). FIG. 31B. FIG. 31C, FIG. 32B and FIG. 32C show the drug effects on 5-minute 80K administration and 5-minute subsequent washing (1st: from 5 minutes to 15 minutes, 2nd: from 15 minutes to 25 minutes, and 3rd: from 25 minutes to 35 minutes) in the cerebral cortex (CTX) and the hippocampus (CA1), respectively (refer to FIG. 37). A significant difference test was performed using Tukey's method."}, "[8]": {"tested_on": "human-derived neuroblast (Neuroblastoma) SH-SY5Y strain", "test": "fluorescence measurement of intracellular/extracellular ATP concentration in SH-SY5Y cultured cells", "format": "cell-based", "conditions": "for intracellular ATP production (fluorescence intensity): in the cells", "protocol": "After the addition of Specimen 1 to cultured cells of a human-derived neuroblast (Neuroblastoma) SH-SY5Y strain, fluorescence measurement of an intracellular/extracellular ATP concentration was performed."}, "[9]": {"conditions": "0.3 μM and 1.0 μM, culture day 4"}}, "data": [{"smiles": "CCn1c2nc(=O)n(C)c(=O)c-2cc2ccccc21", "note": "[Specimen 1]", "values": [{"measurement": "ATP amount in the glial cells", "setting": "[1]; 12 hours and 24 hours after administration", "value": "significantly increased"}, {"measurement": "extracellular ATP amount", "setting": "[1]; astrocytes", "value": "shows a similar tendency"}, {"measurement": "number of dendrites in mature cultured cell", "setting": "hippocampal neurons [2]; 0.3 μM and 1 μM, administered culture day 11, MAP2 antibody culture day 14", "value": "the number of dendrites tends to increase"}, {"measurement": "increase in the number of dendrite branches, mature cells compared with culture day 4", "setting": "hippocampal neurons [2]; administered culture day 11, observed culture day 14", "value": "an increase in the number of branches was not so more marked than that caused by the drug efficacy observed in the cells on culture day 4"}, {"measurement": "drug efficacy on axons at 0.3 μM and 1.0 μM", "setting": "hippocampal neurons [3]; [9]", "value": "almost similar maximum drug efficacy"}, {"measurement": "drug efficacy on dendrites at 0.3 μM and 1.0 μM", "setting": "hippocampal neurons [3]; [9]", "value": "almost similar maximum drug efficacy"}, {"measurement": "number of excitatory synapses", "setting": "hippocampal neurons [3]; 0.3 μM, VGLUT1 antibody, culture day 14", "value": "significantly increased the number of excitatory synapses to the maximum"}, {"measurement": "dendrite extension and number of branches", "setting": "hippocampal neurons [3]; 0.1, 0.3, 1.0 μM added once on culture day 1, MAP2 antibody, culture day 4", "value": "concentration-dependently extended the dendrite and increased the number of branches thereof"}, {"measurement": "elongation/growth of neuron axons and number of branches", "setting": "hippocampal neurons [3]; 0.1, 0.3, 1.0 μM added once on culture day 1, tau antibody, culture day 4", "value": "concentration-dependently increases the elongation/growth of neuron axons and the number of branches"}, {"measurement": "hydrophobicity", "setting": "[4]", "value": "highly hydrophobic"}, {"measurement": "stability", "setting": "[4]; chemical stability", "value": "stable"}, {"measurement": "effect on drastic increase in cytoplasmic Ca2+ concentration caused by 80K-ACSF", "setting": "[5]; s.c. 24 h pretreatment", "value": "no significant effect"}, {"measurement": "quantified cytoplasmic Ca2+ (AUC), significant difference", "setting": "[5]; s.c. 24 h pretreatment, all doses", "value": "a significant difference was not observed"}, {"measurement": "recovery of cytoplasmic calcium concentration variations at each 80K-ACSF administration", "setting": "[5]; β-NMN 30 or 100 mg/kg, Specimen 1 0.01 to 1.0 mg/kg, s.c. 24 h", "value": "show similar recovery"}, {"measurement": "SIRT1", "setting": "SIRT1", "value": "significant increase"}, {"measurement": "ATP production amount (intracellular ATP concentration vs without addition)", "setting": "[6]", "value": "significantly increased the ATP production amount"}, {"measurement": "physiological response of the preparations under 80K-ACSF stimulation (mitochondrial and cytoplasmic Ca2+ variations)", "setting": "[7]; 100 mg/kg β-NMN, 1 mg/kg Specimen 1", "value": "the preparations can maintain a markedly stable physiological response"}, {"measurement": "mitochondrial protective function / function stabilizing effect", "setting": "[7]; 24 hours after administration", "value": "significant mitochondrial function stabilizing effect"}, {"measurement": "effective amount", "setting": "[7]; s.c. 24 h pretreatment", "value": "≤ 1.0", "unit": "mg/kg"}, {"measurement": "strength of mitochondrial Ca2+ concentration suppressing effect relative to β-NMN, judged from the effective concentration", "setting": "[7]; s.c. 24 h pretreatment", "value": 100, "unit": "times"}, {"measurement": "mitochondrial calcium concentration as AUC, cerebral cortex (CTX) and hippocampus (CA1)", "setting": "[7]; s.c. 24 h pretreatment, within the dose range studied, Tukey's method", "value": "a dose response relationship"}, {"measurement": "mitochondrial Ca2+ increase on three times 80K ACSF exposure (time course)", "setting": "[7]; s.c. 24 h pretreatment, β-NMN 10, 30, 100 mg/kg, Specimen 1 0.01, 0.1, 1.0 mg/kg", "value": "dose-dependently suppress a mitochondrial Ca^2+ increase"}, {"measurement": "intracellular ATP production (fluorescence intensity)", "setting": "[8]; 1 μM, after 12 hours", "value": "the effect disappears after 12 hours"}, {"measurement": "intracellular ATP production (fluorescence intensity)", "setting": "[8]; 1 μM, immediately after addition", "value": "an increase in ATP production (increase in fluorescence intensity) is observed for 5 hours"}, {"measurement": "extracellular ATP production / ATP concentration", "setting": "[8]; 1 μM, outside the cells", "value": "an increase in ATP production is observed for 5 hours"}, {"measurement": "morphological change of the cultured cells", "setting": "[8]; treatment with the specimen", "value": "no morphological change of the cultured cells"}]}]}
